IC50 data for 19 molecules are collected here from patent publication US7989454B2, “Leukotriene B4 inhibitors” (Hoffmann-La Roche Inc., priority 2002, dated 2011).

For this assay, the system named is BLT1 and BLT2 receptors. As to the kind of experiment: Ca2+ flux assay for LTB4 antagonist assay (HL-60 FLIPR). The note with it: retinoic acid induced HL-60 cells endogenously expressing BLT1 and BLT2; inhibition of LTB4-induced Ca2+ flux; 30 min compound preincubation; read-out: LTB4 antagonism (HL-60 FLIPR). It counts as cell-based, Human. The protocol:
Ca^2+ Flux Assay for LTB4 Antagonist Assay
Human leukemia HL-60 cells endogenously expressing BLT1 and BLT2 receptors were cultured in RPMI-1640 medium supplemented with 20% fetal bovine serum, 2 mM glutamine, 100 U/mL penicillin and 100 ug/mL streptomycin.
Seventy two hours prior to experiment cells are counted using ViaCount reagent, centrifuged and resuspended at 2.0×10^5 cells/ml density with the complete growth media containing 1 μM retinoic acid (Sigma).
On a day of the experiment loading buffer (Calcium-3 Assay Kit, Molecular Devices) was prepared by dissolving the contents of one vial (Express Kit) into 500 ml Hank's Balanced Salt Solution containing 20 mM HEPES and 5 mM probenecid. Equal volume of the loading buffer was mixed with the replacement buffer (Hank's Balanced Salt Solution containing 20 mM HEPES, 0.05% BSA and 5 mM probenecid). Retinoic acid induced HL-60 cells were counted using ViaCount reagent, centrifuged and resuspended at 2.0×10^6 cells/mL density with the loading buffer/replacement buffer, dispensed into 384 well black/clear microplates (Falcon)(25 μL/well) and placed in a 37° C./5% CO2 incubator for 1 hour.
During the incubation, test compounds were prepared at 6× the desired concentration in HBSS/20 mM HEPES/0.05% BSA as well as LTB4 (Biomol) was prepared at 2.2× concentration in HBSS/20 mM HEPES/0.5% BSA buffer.
After the incubation, both the cell and compound plates were brought to the FLIPR and 5 μL of the diluted compounds were transferred to the cell plates by the FLIPR. Plates were then incubated for 30 min at room temperature. After the ½ hour incubation, plates were returned to the FLIPR and 25 μL of 2.2×LTB4 was added to the cell plates. During the assay, fluorescence readings were taken simultaneously from all 384 wells of the cell plate every 1.5 seconds. Five readings were taken to establish a stable baseline, then 25 μL (LTB4) of sample was rapidly and simultaneously added to each well of the cell plate. The fluorescence was continuously monitored before, during and after sample addition for a total elapsed time of 100 seconds. Responses (increase in peak fluorescence) in each well following agonist addition was determined. The initial fluorescence reading from each well, prior to ligand stimulation, was used a zero baseline value for the data from that well. The responses are expressed as % inhibition of the neutral control (neural control: wells that received buffer plus DMSO but no test compound).
A general note: A change in cytosolic calcium serves as a functional read-out for many receptors and channels.
For the molecule `O=C(O)CCCOc1cccc(CCCCCCOc2cc(C(=O)NCc3ccccc3)cc(-c3c(F)cccc3F)c2)c1CCC(=O)O` [Example 5, 4-[3-[6-(5-Benzylcarbamoyl-2′,6′-difluoro-biphenyl-3-yloxy)-hexyl]-2-(2-carboxy-ethyl)-phenoxy]-butyric acid], the IC50 turned out to be 299 nM. Consider `Cc1cscc1-c1cc(OCCCCCCc2cccc(OCCCC(=O)O)c2CCC(=O)O)cc(C(=O)N2CCN(C)CC2)c1` [Example 24, 4-(2-(2-Carboxy-ethyl)-3-{6-[3-(4-methyl-piperazine-1-carbonyl)-5-(4-methyl-thiophen-3-yl)-phenoxy]-hexyl}-phenoxy)-butyric acid], for which the IC50 is 47.3 nM. Under `CN1CCN(C(=O)c2cc(OCCCCCCc3cccc(OCCCC(=O)O)c3CCC(=O)O)cc(-c3ccccc3)c2)CC1` [Example 28, 4-(2-(2-Carboxy-ethyl)-3-{6-[5-(4-methyl-piperazine-1-carbonyl)-biphenyl-3-yloxy]-hexyl}-phenoxy)-butyric acid] stands 0.22 nM; under `CN1CCCN(C(=O)c2cc(OCCCCCCc3cccc(OCCCC(=O)O)c3CCC(=O)O)cc(-c3ccc4c(c3)OCO4)c2)CC1` [Example 36, 4-[3-{6-[3-Benzo[1,3]dioxol-5-yl-5-(4-methyl-[1,4]diazepane-1-carbonyl)-phenoxy]-hexyl}-2-(2-carboxy-ethyl)-phenoxy]-butyric acid], 0.14 nM; under `O=C(O)CCCOc1cccc(CCCCCCOc2cc(C(=O)N3CCCCC3)cc(-c3ccc4c(c3)OCO4)c2)c1CCC(=O)O` [Example 42, 4-[3-{6-[3-Benzo[1,3]dioxol-5-yl-5-(piperidine-1-carbonyl)-phenoxy]-hexyl}-2-(2-carboxy-ethyl)-phenoxy]-butyric acid], 0.21 nM. Under `O=C(O)CCCOc1cccc(CCCCCCOc2cc(C(=O)N3CCNCC3)cc(-c3ccc4c(c3)OCO4)c2)c1CCC(=O)O` [Example 44, 4-[3-{6-[3-Benzo[1,3]dioxol-5-yl-5-(piperazine-1-carbonyl)-phenoxy]-hexyl}-2-(2-carboxy-ethyl)-phenoxy]-butyric acid] stands 0.08 nM; under `CC1CCCN(C(=O)c2cc(OCCCCCCc3cccc(OCCCC(=O)O)c3CCC(=O)O)cc(-c3ccc4c(c3)OCO4)c2)C1` (stereo not shown) [Example 46, 4-[3-{6-[3-Benzo[1,3]dioxol-5-yl-5-(3-methyl-piperidine-1-carbonyl)-phenoxy]-hexyl}-2-(2-carboxy-ethyl)-phenoxy]-butyric acid], 7.46 nM. `O=C(O)CCCOc1cccc(CCCCCCOc2cc(C(=O)NC3CC3)cc(-c3ccc4c(c3)OCO4)c2)c1CCC(=O)O` [Example 51, 4-[3-[6-(3-Benzo[1,3]dioxol-5-yl-5-cyclopropylcarbamoyl-phenoxy)-hexyl]-2-(2-carboxy-ethyl)-phenoxy]-butyric acid]: the IC50 turned out to be 0.08 nM. Under `CN(C)C(=O)c1cc(OCCCCCCc2cccc(OCCCC(=O)O)c2CCC(=O)O)cc(-c2ccc3c(c2)OCO3)c1` [Example 53, 4-[3-[6-(3-Benzo[1,3]dioxol-5-yl-5-dimethylcarbamoyl-phenoxy)-hexyl]-2-(2-carboxy-ethyl)-phenoxy]-butyric acid] stands 0.1 nM; under `NC(=O)c1cc(OCCCCCCc2cccc(OCCCC(=O)O)c2CCC(=O)O)cc(-c2ccc3c(c2)OCO3)c1` [Example 55, 4-[3-[6-(3-Benzo[1,3]dioxol-5-yl-5-carbamoyl-phenoxy)-hexyl]-2-(2-carboxy-ethyl)-phenoxy]-butyric acid], 0.2 nM. Under `O=C(O)CCCOc1cccc(CCCCCCOc2cc(C(=O)NC3CCC3)cc(-c3ccc4c(c3)OCO4)c2)c1CCC(=O)O` [Example 61, 4-[3-[6-(3-Benzo[1,3]dioxol-5-yl-5-cyclobutylcarbamoyl-phenoxy)-hexyl]-2-(2-carboxy-ethyl)-phenoxy]-butyric acid] stands 0.21 nM; under `O=C(O)CCCOc1cccc(CCCCCCOc2cc(C(=O)NC3CCC3)cc(-c3cccc(F)c3)c2)c1CCC(=O)O` [Example 67, 4-{2-(2-Carboxy-ethyl)-3-[6-(5-cyclobutylcarbamoyl-3′-fluoro-biphenyl-3-yloxy)-hexyl]-phenoxy}-butyric acid], 52.2 nM; under `CCN(C)C(=O)c1cc(OCCCCCCc2cccc(OCCCC(=O)O)c2CCC(=O)O)cc(-c2ccc3c(c2)OCO3)c1` [Example 73, 4-[3-{6-[3-Benzo[1,3]dioxol-5-yl-5-(ethyl-methyl-carbamoyl)-phenoxy]-hexyl}-2-(2-carboxy-ethyl)-phenoxy]-butyric acid], 0.25 nM. As to `CNC(=O)c1cc(OCCCCCCc2cccc(OCCCC(=O)O)c2CCC(=O)O)cc(-c2ccc3c(c2)OCCO3)c1` [Example 77, 4-(2-(2-Carboxy-ethyl)-3-{6-[3-(2,3-dihydro-benzo[1,4]dioxin-6-yl)-5-methylcarbamoyl-phenoxy]-hexyl}-phenoxy)-butyric acid], the IC50 worked out at 2.41 nM. Under `CN(C)C(=O)c1cc(OCCCCCCc2cccc(OCCCC(=O)O)c2CCC(=O)O)cc(-c2ccsc2)c1` [Example 85, 4-{2-(2-Carboxy-ethyl)-3-[6-(3-dimethylcarbamoyl-5-thiophen-3-yl-phenoxy)-hexyl]-phenoxy}-butyric acid] stands 0.28 nM; under `Cc1ccc(-c2cc(OCCCCCCc3cccc(OCCCC(=O)O)c3CCC(=O)O)cc(C(=O)N(C)C)c2)cc1F` [Example 105, 4-{2-(2-Carboxy-ethyl)-3-[6-(5-dimethylcarbamoyl-3′-fluoro-4′-methyl-biphenyl-3-yloxy)-hexyl]-phenoxy}-butyric acid], 0.79 nM; under `Cc1ccc(-c2cc(OCCCCCCc3cccc(OCCCC(=O)O)c3CCC(=O)O)cc(C(=O)N(C)C)c2)cc1` [Example 112, 4-{2-(2-Carboxy-ethyl)-3-[6-(5-dimethylcarbamoyl-4′-methyl-biphenyl-3-yloxy)-hexyl]-phenoxy}-butyric acid], 0.24 nM.

Turning to `CN1CCN(C(=O)c2cc(CCCCCCCc3cccc(OCCCC(=O)O)c3CCC(=O)O)cc(-c3ccccc3)c2)CC1` [Example 118, 4-(2-(2-Carboxy-ethyl)-3-{7-[5-(4-methyl-piperazine-1-carbonyl)-biphenyl-3-yl]-heptyl}-phenoxy)-butyric acid], the IC50 was 19.5 nM. Consider `CN(C)C(=O)c1cc(C#CCCCCCc2cccc(OCCCC(=O)O)c2CCC(=O)O)cc(-c2ccc(O)cc2)c1` [Example 122, 4-{2-(2-Carboxy-ethyl)-3-[7-(5-dimethylcarbamoyl-4′-hydroxy-biphenyl-3-yl)-hept-6-ynyl]-phenoxy}-butyric acid], for which the IC50 came to 15.6 nM.
